Measured values reported in patent EP0407583A1, “DERIVATIVES OF DICHLOR[…] ACYLAMIDO[…] AND INSECTICIDAL, FU[…] HEMATOCIDAL PREPARATIONS BASED ON THEM” (priority 1989, dated 1990).

Experiments:
mice and rats = conditions: for mice and rats; cited from earlier work
[1] = tested on: invasion larvae of gall nematodes; test: Nematocidal effect on invasion larvae, experimental (object glass) test; format: in vivo; conditions: 1% solution in distilled water; 100 invasion larvae; 24 hours
Procedure: A nematocidal effect of the composition, according to the invention, was tested on invasion larvae of gall nematodes. To this end, 1 droplet of a suspension containing 100 invasion larvae of gall nematodes was placed onto the object glasses with cells. 1 droplet of the composition of the invention was added thereinto. 1 drop of distilled water was added to the control cell instead of the composition, according to the invention. The glasses with test and control cells were placed onto Petri dish with a moisten ashless filter, and 24 hours later the killed nematodes were recorded. The tests were 3-fold repeated. The study of a nematocidal activity was conducted in comparison with a known nematocidal composition based on 0,0-dimethyl-0-/2-(N,N'-diethylcarbamoyl)-1-methyl-2-chlorovinyl/ /phosphate.

gall nematodes = test: Nematocidal effect, field test on affected tomato plants; format: in vivo; conditions: 5 m^2 plots of tomato plants affected by nematodes
Procedure: In the field conditions, the plots of 5 m^2 in size of tomato plants affected by nematodes were treated with the claimed nematocidal compositions and the known nematocides.

[2] = tested on: leaves of tomato and cucumber; test: Phytotoxic effect on leaves; format: in vivo; conditions: nematocidal composition, 1% solution in distilled water
Solubility (qualitative) = conditions: water, alcohols, acetone
Candida albicans [3] = test: Fungicidal activity, laboratory test on Sabouraud medium; format: cell-based; conditions: composition 0.01 % by mass in distilled water
Candida albicans [4] = test: Fungicidal activity, large-scale test on contaminated surfaces and fabrics; format: cell-based; conditions: composition 0.01 % by mass; surfaces of ceramics, metal, wood, rubber, fabrics
Procedure: (§1) The large-scale tests were carried out by using Candida albicans and Candida tropicalis strains 2-day culture of which was diluted with an isotonic solution of sodium chloride to the concentration of 5x10^7 cells in 1 ml.
(§2) The suspended cell culture was applied onto the surface (7 mm in diameter) of articles made of ceramics, metal, wood and rubber as well as cotton, flannel woollen fabrics which were presterillized.
(§3) In a day after incubating from the treated surfaces, the washings were taken with a cotton-gauze tampon wetted with Sabouraud^ts liquid medium, immersed into the tubes with a similar medium and placed into a thermostat at 37 °C for two days. Thereafter, the inoculum was introduced in Sabouraud's stiff agar, and the growth records were made by a conventional procedure.

Candida tropicalis [5] = test: as above; format: cell-based; conditions: composition 0.01 % by mass; surfaces of ceramics, metal, wood, rubber, fabrics
Procedure: as §1, §2, §3

Candida tropicalis [6] = test: Fungicidal activity, laboratory test on Sabouraud medium; format: cell-based; conditions: composition 0.01 % by mass in distilled water
Procedure: A fungicidal composition based on this compound was prepared which was a solution of it in distilled water at the concentration pf 0.01 % by mass. A fungicidal activity of the composition, according to the invention, was tested in laboratory conditions for inhibiting the growth of fungi such as Candida tropicalis affecting the macosal and skin coats, and internals.
To this, the Petri dishes containing the Sabouraud growth medium were inoculated with a suspension of microorganisms at the concentration of 5x10^7 cells of fungi in 1 ml.
The restricted surface areas (7 mm in diameter) were coated with the composition by means of a small metal spatula 4x4 mm in size. In a day of incubating at 37 °C in a thermostat, the composition inhibited the growth of yeast--like fungi. An antifungal activity of the composition was specified by a method of 10-fold serial dilution using Sabouraud's liquid medium in 2 ml of which 2x10^5 cells were introduced. After two days of incubation in the thermostat at 34 °C, a minimum dilution of the substance exerting a fungicidal effect was determined.

[7] = Toxicity LD50 of the compound; format: in vivo; conditions: species and route not given

SMILES	LD50 (mice and rats) [mg/kg]	Death of larvae, %, conditions experimental [1] [%]	Death of larvae, %, conditions field (gall nematodes) [%]	phytotoxical effect on leaves of tomato and cucumber [2]	solubility (Solubility (qualitative))	Inhibition of growth of fungal colonies, % Candida albicans tests laboratory (Candida albicans [3]) [%]	Inhibition of growth of fungal colonies, % Candida albicans tests large-scale (Candida albicans [4]) [%]	Inhibition of growth of fungal colonies, % Candida tropicalis tests large-scale (Candida tropicalis [5]) [%]	Inhibition of growth of fungal colonies, % Candida tropicalis tests laboratory (Candida tropicalis [6]) [%]	LD50 [7] [ml/k^g]
COP(=O)(OC)C(O)C(Cl)(Cl)Cl (centres unmarked) [Known composition, 0,0-dimethyl(1-hydroxy-2,2,2-trichloroethyl)phosphonate]	225 to 1200									
O=C(NP(=O)(Nc1ccccc1Cl)Nc1ccccc1Cl)c1ccc(Br)cc1 [Example 17, para-bromobenzoylamidophosphoric acid di-ortho-chloroanilide]		100	100	no phytotoxical effect	soluble in water, alcohols, acetone					
O=C(NP(=O)(Sc1ccc(Cl)cc1)Sc1ccc(Cl)cc1)C(Cl)(Cl)CCl [Example 9, di--para-chlorothiophenyl ether of α, α,β-trichloropropio- nylamidophosphoric acid]					soluble in water, alcohols, acetone	100	100	100	100	670
